Literature values, collected in patent US20250135014A1, “TARGETED LINEAR CONJUGATES COMPRISING POLYETHYLENEIMINE AND POLYETHYLENE GLYCOL AND POLYPLEXES COMPRISING THE SAME” (TARGIMMUNE THERAPEUTICS AG, priority 2021, published 2025).

Molecular target: EGFR (Homo sapiens, UniProt P00533)
Conditions: Ruoslahti et al. 2012; Li et al. 2005

YHWYGYTPQNVI [GE-11]
Kd: 22 nM
